Read-outs that look alike come from different tables or passages of the source. Peptide text beside a SMILES is read from it. * marks the point of attachment. Cbz = O=C(OCc1ccccc1)*; CH2F = FC*
Key:
[1] = system: GCN2, PKR, eIF2α, ATF4, CHOP in HT29 cells; assay: Western blot, ISR kinases / eIF2α / ATF4 / CHOP; type: cell-based, human
Procedure: Figure 7 PG3 induces upregulation of ATF4 through ISR via HRI. (A) HT29 cells were treated with PG3, GSK2606414, TG and ONC201 respectively, or co-treatment with PG3/GSK2606414, PG3/TG, and PG3/ONC201 for 15 h. (B) MEF, MEF^PERK−/− and MEF^GCN2−/− cells were treated with PG3 and ONC201 for 16 hours. (C) HT29 cells were transfected with siControl, siPKR, siHRI and siPKR/siHRI for 24 hours and then treated with PG3 for 16 hours. (D) HCT116 p53^−/− cells were transfected with siControl and siHRI for 24 hours and then treated with PG3 for 16 hours. (E) HCT116 p53^−/− cells were treated with PG3 and ONC201 for indicated times. (F) PANC1-sgCtrl, -sgHRI and -sgPKR cell lines were treated with PG3 and imipridones (ONC201, ONC206 and ONC212) for 16 hours. Western blot was performed using indicated antibodies. (G) Proposed model of PG3-induced cell apoptosis through HRI/ATF4/PUMA axis. Abbreviation: L.E.: Long exposure.
(§1) After treatment, protein lysates were collected for Western blot analysis. A total of 15 μg of protein was used for SDS-PAGE. After primary and secondary antibody incubations, the signal was detected by a chemiluminescence detection kit, imaged by Syngene (Imgen Technologies). Antibodies for NAG-1 (GDF15) and P53 were from Santa Cruz Biotechnology; for caspase 8, cleaved caspase 8, caspase 9, caspase 3, cleavage PARP, eIF2α, p-eIF2α (Ser51), CHOP, ATF4, DR5, and PUMA were from Cell Signaling Technology. Noxa and p21 were from Calbiochem. Ran was from BD Biosciences.
(§2) Supplementary Figure 2: ROS and NO are not responsible for PG3-induced HRI activation. (A, B) cells were pre-treated
(§3) with ZnPP, L-NMMA, SA and NAC for 2 hours respectively, and then ONC201 or PG3 was added to the medium for 24 hour treatment.
(§4) Western blot was performed using indicated antibodies.
(§5) (1 picture or pasted object on this page, not shown here)

ALAS1, UROD = assay: Western blot, heme biosynthesis enzymes; type: cell-based, human
Procedure: Figure 8 Inhibition of heme biosynthesis leads to upregulation of ATF4. (A) HT29 cells were treated with SA and ONC201 for 20 hours. Western blotting was performed using the indicated antibodies. (B) HT29 cells were transfected with siCtrl, siHRI, siClpX, siALAS1, siClpX/siALAS1 and siClpX/siALAS1/siHRI for 48 hours. (C) HT29 cells were transfected with siCtrl, siLonP1, siClpP for 24 or 48 hours respectively, and then treated with ONC201 for 24 hours. (D) Proposed model of ONC201-induced cell apoptosis through ClpP/ALAS1/HRI/ATF4 axis. (E, F) Silencing of ClpP in HCT116 p53^−/− and MDA-MB-468 cells and then treated with PG3, PG3-Oc and ONC201. Western blot was performed using indicated antibodies.
as §1, §2, §3, §4, §5

HRI = system: HRI; design: method as in PMID 22827572; conditions: cited from earlier work
[2] = system: HCT116 (wild-type), SW480 (R273H, P309S), and DLD1 (S241F); assay: Cell viability assay in colorectal cancer cell lines (Figure 1E); type: cell-based, human; conditions: 72 h
Procedure: (§6) Figure 1 PG3 inhibits cell proliferation and growth in a p53-indepent manner. (A–E) Cell viability assay, dose response curves and IC50 value measurements in a panel of cancer cell lines and normal cells. Cells were treated with different concentrations of PG3, PG3-Oc (Oc), obatoclax (Ob), prodigiosin (P) or DMSO for 72 h. Luciferase activity was imaged by the IVIS Imaging System after treatment. Cell viability data were normalized to those of DMSO treatment control in each cell line and data analyses were performed using PRISM4 software. IC50 data are expressed as the mean ±SD (normal; n = 3).
(§7) Cells were seeded in 96-well plates (6 × 10^3 cells/well). Cells were treated with different concentrations of compounds or dimethyl sulfoxide (DMSO) as a control for 72 hours. The cell viability was assessed by CellTiterGlo bioluminescent cell viability assay (Promega), following the manufacturer’s protocol. Bioluminescence imaging was measured using the IVIS imager. The percentage of cell viability (mean ± SEM) at each dose was calculated against the respective DMSO control. The IC50 values were determined from the sigmoidal dose-response curves using GraphPad Prism.

HT29 (R273H) = assay: Cell viability assay (CellTiterGlo), HT29; type: cell-based, human
Procedure: as §6
as §6, with “2 p53-dependent inhibition of” for “1 PG3 inhibits”, “is only observed at specific concentrations. (A–J)” for “and growth in a p53-indepent manner. (A–E)”, “ZMC1, CP-313908, APR-246, Ellipticine, Nutalin-3a” for “PG3, PG3-Oc (Oc), obatoclax (Ob), prodigiosin (P)”
as §7

HCT116 (R175H) = assay: Cell viability assay (CellTiterGlo), HCT116 R175H; type: cell-based, human
Procedure: as §6
as §6, with “2 p53-dependent inhibition of” for “1 PG3 inhibits”, “is only observed at specific concentrations. (A–J)” for “and growth in a p53-indepent manner. (A–E)”, “ZMC1, CP-313908, APR-246, Ellipticine, Nutalin-3a” for “PG3, PG3-Oc (Oc), obatoclax (Ob), prodigiosin (P)”
as §7

[3] = system: HFF-1 (human foreskin fibroblast cell with wild-type p53); assay: Cell viability assay (CellTiterGlo), HFF-1 normal cells; type: cell-based; conditions: 72 h, CellTiterGlo, normal cells; read-out: IC50 values, HFF-l (WT)
Procedure: as §6
as §6, with “2 p53-dependent inhibition of” for “1 PG3 inhibits”, “is only observed at specific concentrations. (A–J)” for “and growth in a p53-indepent manner. (A–E)”, “ZMC1, CP-313908, APR-246, Ellipticine, Nutalin-3a” for “PG3, PG3-Oc (Oc), obatoclax (Ob), prodigiosin (P)”
as §7

[4] = system: MRC5 (human lung fibroblast cell with wild-type p53); assay: Cell viability assay (CellTiterGlo), MRC5 normal cells; type: cell-based; conditions: 72 h, read-out: IC50 values, MRC5 (WT)
Procedure: as §6
as §6, with “2 p53-dependent inhibition of” for “1 PG3 inhibits”, “is only observed at specific concentrations. (A–J)” for “and growth in a p53-indepent manner. (A–E)”, “ZMC1, CP-313908, APR-246, Ellipticine, Nutalin-3a” for “PG3, PG3-Oc (Oc), obatoclax (Ob), prodigiosin (P)”
as §7

[5] = system: SW480 cells carrying a p53-responsive luciferase reporter; assay: p53-responsive reporter assay; type: cell-based, human; conditions: 30 μM, 15 hour time point
Procedure: SW480 cells carrying a p53-responsive luciferase reporter were used for assay of functional restoration of mutant p53. Cells were seeded in 96-well plates (5 × 10^4 cells/well) and were treated with compounds indicated for 6 and 15 h, respectively. Then, D-luciferin was added to each well with final concentration 100 μg/mL, and cells were imaged by using an IVIS Imaging System to detect luciferase activity.
p53-mutant SW480 human colon cancer cells, stably expressing a p53-responsive luciferase reporter, were used to assay functional restoration p53 pathway-dependent transcription in mutant p53-expressing tumor cells. Cells were seeded in 96-well plates (5 × 10^4 cells/well) and were treated with small-molecule compounds for 6 and 15 h, respectively. Then, D-luciferin was added to each well at a final concentration of 100 μg/mL, and cells were imaged by using an IVIS Imaging System (Xenogen) to detect luciferase activity.

ATF4 = assay: Western blot, ATF4 induction; type: cell-based, human; conditions: 24 h
Procedure: (§8) Figure 4 Activation of ATF4 and up-regulation of typical p53 target genes. (A–E) Western blot analysis of p53 protein levels and upregulation of ATF4, PUMA, DR5 and p21. Cells were treated for 24 h with indicated compounds, concentrations and cell lines. Abbreviations: S.E.: Short exposure; L.E.: Long exposure.
as §1

p53 protein = assay: Western blot, p53 protein levels; type: cell-based, human
Procedure: Cells were treated for 24 h with indicated compounds, concentrations and cell lines. Abbreviations: S.E.: Short exposure; L.E.: Long exposure.
as §1

DR5 = assay: Western blot, DR5 induction; type: cell-based, human
Procedure: as §8, §1

PUMA = assay: Western blot, PUMA induction; type: cell-based, human
Procedure: as §8, §1

p21 = assay: Western blot, p21 induction; type: cell-based, human
Procedure: as §8, §1

[6] = system: cleaved caspase-8, -3, cleaved PARP and PUMA in HT29, SW480 and HCT116 p53−/− cells; assay: Western blot, apoptosis markers in PG3-treated cells; type: cell-based, human; conditions: co-treatment with PG3; HT29, SW480, HCT116 p53–/–
Procedure: Figure 5 PG3 induces apoptosis in p53-null and p53-mutant cancer cell lines. (A–E) Dose-response and time-course analysis of cleavage of caspase-8, -3, cleaved PARP and PUMA in PG3-treated HT29, SW480 and HCT116 p53^−/− cells by western blot using the indicated antibodies. (F–H) Flowcytometry analysis of cell death. (I) HT29 and HT29-PUMA^−/− and (J) SW480 cells were co-treated with PG3 and pan-caspase inhibitor Z-VAD-fmk for 48 h. (K) HCT116 p53^−/− cell were co-treated with PG3 and Z-VAD-fmk for 24 hours.
as §1

## CC(=O)CC(=O)CCC(=O)O [SA, Succinylacetone]
[1]; HT29, 20 hours, comparable to ONC201
  eIF2α phosphorylation, ATF4 and CHOP: eIF2α phosphorylation and upregulation of ATF4 and CHOP
ALAS1, UROD; HT29, 20 hours
  ALAS1 protein level: upregulation of ALAS1

## Cn1cc(-c2ccc3c(c2)CCN3C(=O)Cc2cccc(C(F)(F)F)c2)c2c(N)ncnc21 [GSK2606414, 7-methyl-5-(1-{[3-(trifluoromethyl)phenyl]acetyl}-2,3-dihydro-1H-indol-5-yl)-7H-pyrrolo[2,3-d]pyrimidin-4-amine]
[1]; HT29, co-treatment with ONC201
  effect on ONC201-induced upregulation of ATF4 and CHOP: significantly attenuates
[1]; HT29, co-treatment with PG3, 15 h
  effect on PG3-induced eIF2α phosphorylation, ATF4 and CHOP upregulation: does not block
[1]; HT29, co-treatment with thapsigargin
  effect on TG-induced upregulation of ATF4 and CHOP: abolishes
HRI
  IC50: 0.42 µM

## COC1=CC(c2cc3ccccc3[nH]2)=N/C1=C\c1[nH]c(C)cc1C [Obatoclax]
[2]
  potency compared among PG3-Oc, prodigiosin and Obatoclax: same potency

## COc1ccc(/C=C/c2nc(NCCCN(C)C)c3ccccc3n2)cc1 [CP-31398]
HT29 (R273H); 72 h, CellTiterGlo
  IC50: 0.647 µM
HT29 (R273H); HT29, 0.04 μM
  inhibition of cell viability: potently inhibited
HT29 (R273H); HT29 vs HFF-1
  fold more potency in HT29 than in HFF-1: 12.2 fold
HT29 (R273H); HT29 vs MRC5
  fold more potency in HT29 than in MRC5: 9.1 fold
HCT116 (R175H); 72 h, CellTiterGlo
  IC50: 9.58 µM
HCT116 (R175H); HCT116-R175H compared to HCT116 (WT) and HCT116 p53–/–, 10 μM
  selective inhibition among HCT116 isogenic cell lines: selective inhibition
[3]
  IC50: 7.92 µM
[4]
  IC50: 5.92 µM
[5]
  p53-responsive reporter activity: able to activate the reporter
ATF4; HT29 and TOV-112D, compared to PG3 and PG3-Oc
  upregulation of ATF4: more potently induces upregulation of ATF4
ATF4; three isogenic HCT116 cell lines
  upregulation of ATF4: does not upregulate ATF4
p53 protein; HCT116, 24 h
  wild-type p53 protein level: marginal stabilization
p53 protein; HT29, 24 h
  endogenous mutant p53 R273H protein level: stabilizes
p53 protein; TOV-112D, 24 h
  endogenous mutant p53 R175H protein level: marginally destabilizes
p53 protein; engineered HCT116-R175H cells, 24 h
  exogenous mutant p53 R175H protein level: no effects
DR5; HCT116 (p53 wild-type), 24 h
  upregulation of DR5: does not upregulate DR5
DR5; HCT116 p53-R175H, 24 h
  upregulation of DR5: does not upregulate DR5
DR5; HCT116 p53–/–, 24 h
  upregulation of DR5: does not upregulate DR5
DR5; HT29, 24 h
  upregulation of DR5: mildly upregulates DR5
DR5; TOV-112D, 24 h
  upregulation of DR5: upregulates DR5 in a comparable manner to PG3 and PG3-Oc
PUMA; HCT116 (p53 wild-type), 24 h
  upregulation of PUMA: induces PUMA expression
PUMA; HCT116 p53-R175H, 24 h
  upregulation of PUMA: barely
PUMA; HCT116 p53–/–, 24 h
  upregulation of PUMA: barely
PUMA; HT29, 24 h
  upregulation of PUMA: induces PUMA expression
PUMA; TOV-112D, 24 h
  upregulation of PUMA: barely
p21; HCT116 (p53 wild-type), 24 h
  upregulation of p21: significantly
p21; HCT116 p53-R175H, 24 h
  upregulation of p21: barely
p21; HCT116 p53–/–, 24 h
  upregulation of p21: barely
p21; HT29, 24 h
  upregulation of p21: significantly
p21; TOV-112D, 24 h
  upregulation of p21: upregulates p21 strongly

## Cc1ccccc1CN1C(=O)C2=C(CCN(Cc3ccccc3)C2)N2CCN=C12 [ONC201]
[1]
  phosphorylation of GCN2 and PKR: does not increase phosphorylation
ALAS1, UROD
  ALAS1 protein level: potent downregulation and inhibition of ALAS1
  UROD protein levels: do not have any effects

## COC(=O)C[C@H](NC(=O)[C@H](C)NC(=O)[C@@H](NC(=O)OCc1ccccc1)C(C)C)C(=O)CF [Z-VAD-FMK] (Cbz-Val-Ala-Asp(OMe)-CH2F)
[6]
  effect on PG3-induced cleavage of PARP, caspase-8 and -3: potently inhibits the cleavage of PARP, caspase-8, and -3

## prodigiosin
[2]
  potency compared among PG3-Oc, prodigiosin and Obatoclax: same potency
